Where two headings read alike, the source gives them in different places. One block for each compound: values may come before it.
Tests used:
PKD1 = tested on: PKD1; set-up: method as in PMID 18829454, PMID 22267986, PMID 21617763, PMID 20444281, PMID 21998636; settings: cited from earlier work; for IC50: previous HTS assays; for inhibition of PKD1 in vitro: previous work
[1] = tested on: PKD1 in LNCaP prostate cancer cells; set-up: method as in PMID 18829454, PMID 22267986, PMID 21617763, PMID 20444281, PMID 21998636; settings: cited from earlier work
[2] = target: T1, recombinant GST-tagged human protein kinase D1 (PKD1) (Homo sapiens, UniProt Q15139); experiment: In vitro radiometric PKD1 kinase assay; type: biochemical; settings: read-out: Inhibition of PKD1
T1 construct: purchased Enzo Life sciences (Farmingdale, NY)
T1 sequence (Q15139 1-912): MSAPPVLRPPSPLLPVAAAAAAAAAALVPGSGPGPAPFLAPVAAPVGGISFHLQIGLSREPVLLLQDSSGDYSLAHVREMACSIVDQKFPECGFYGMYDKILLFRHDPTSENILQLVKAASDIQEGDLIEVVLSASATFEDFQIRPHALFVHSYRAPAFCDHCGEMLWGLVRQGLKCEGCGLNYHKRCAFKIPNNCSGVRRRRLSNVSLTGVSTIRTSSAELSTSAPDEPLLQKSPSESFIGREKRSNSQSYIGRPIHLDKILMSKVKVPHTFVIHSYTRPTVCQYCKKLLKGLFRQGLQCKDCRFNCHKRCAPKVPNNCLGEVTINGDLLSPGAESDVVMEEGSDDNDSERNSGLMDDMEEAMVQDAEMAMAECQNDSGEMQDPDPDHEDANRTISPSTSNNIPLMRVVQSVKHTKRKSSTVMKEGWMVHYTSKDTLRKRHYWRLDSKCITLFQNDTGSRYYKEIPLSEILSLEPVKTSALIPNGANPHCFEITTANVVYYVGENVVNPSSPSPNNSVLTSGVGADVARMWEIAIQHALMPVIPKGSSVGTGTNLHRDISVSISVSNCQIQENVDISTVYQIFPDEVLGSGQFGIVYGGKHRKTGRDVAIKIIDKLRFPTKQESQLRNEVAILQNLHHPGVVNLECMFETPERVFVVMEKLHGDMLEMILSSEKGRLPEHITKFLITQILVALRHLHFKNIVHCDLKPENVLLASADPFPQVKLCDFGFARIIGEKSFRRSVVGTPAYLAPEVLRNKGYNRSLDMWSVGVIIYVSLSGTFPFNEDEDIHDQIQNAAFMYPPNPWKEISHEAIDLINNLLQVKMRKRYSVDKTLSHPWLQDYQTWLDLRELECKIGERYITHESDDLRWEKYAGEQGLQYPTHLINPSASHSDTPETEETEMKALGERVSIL
Description: All compounds were given distinct UPCMLD (University of Pittsburgh Center for Chemical Methodologies and Library Development) IDs and were then assigned numerical IDs for convenient data display. Evaluation of each compound was carried out in triplicate at a single concentration (1 µM). Our previously described PKD1 inhibitor, kb-NB142-70, and DMSO (solvent alone) were used as positive and negative controls, respectively. Percent residual kinase activity was calculated based on that of the negative control (DMSO).
Kinase active recombinant GST-tagged human protein kinase D1 (PKD1) was obtained from Enzo Life sciences (Farmingdale, NY). DMSO was purchased from Sigma. Recombinant PKCα, PKCδ and CAMKIIα were obtained from SignalChem (Richmond, BC, Canada). ATP was purchased from Fisher Scientific. HDAC5 substrate peptide was synthesized by Biobasic Canada Inc. (Markham, ON). Myelin basic protein 4–14 was purchased from AnaSpec Inc. (Fremont, CA). The targeted kinase inhibitor library was obtained from Hoffmann-La Roche, Inc.
1.2 µg of HDAC-5 was used as substrate in the reaction. Phosphorylation of HDAC5 was detected in a kinase reaction having 1 µCi [γ-^32P] […] The reaction was incubated at 30° for 10 minutes and 25 µL of the reaction was spotted on Whatman P81 filter paper. The filter paper was washed 3 times in 0.5% phosphoric acid, air dried and counted using Beckman LS6500 multipurpose scintillation counter. Percent PKD1 inhibition was graphed using GraphPad Prism software 5.0.

PKCδ = PKCδ (Homo sapiens, UniProt Q05655); experiment: In vitro radiometric PKC kinase assay; type: biochemical; set-up: purchased SignalChem (Richmond, BC, Canada); settings: read-out: inhibition of PKCδ
Description: In this study, we counter-screened the twenty-eight PKD1 inhibitory agents for inhibition of PKCα, PKCδ and CAMKIIα in order to get an initial profile for the potential PKD selectivity, since these are the functionally most closely related kinases. The compounds were examined at 0.1, 1 and 10 µM concentration. […] Next, the inhibitory activity for CAMKIIα was examined.
The PKC kinase assay was carried out by co-incubating 1 µCi [γ-^32P]ATP, 20 µM ATP, 50 ng of purified PKCα or PKCδ and 5 µg of myelin basic protein 4–14, 0.25 mg/mL bovine serum albumin, 0.1 mg/mL phosphatidylcholine/phosphatidylserine (80/20%) (1 µM), 1 µM phorbol dibutyrate in 50 µL of kinase buffer containing 50 mM Tris-HCl, pH 7.5, 4 mM MgCl2 and 10 mM β-mercaptoethanol. For the CAMK assay, 50 ng of CAMK and 2 µg Syntide-2 substrate in 50 µL kinase buffer were incubated with 0.1 mM MgCl2, 1 µCi of [γ-^32P] ATP, 70 µM ATP. 0.5 mM CaCl2 and 30 ng/µL calmodulin were preincubated for 15 min on ice and then added in the kinase reaction. The reactions were incubated at 30°C for 10 minutes and 25 µL of the reaction was spotted on Whatman P81 filter paper. The filter paper was washed 3 times in 0.5% phosphoric acid, air dried and counted using Beckman LS6500 multipurpose scintillation counter.

[3] = 1 µM, triplicate determinations

Sequence of PKCδ (Q05655 whole entry): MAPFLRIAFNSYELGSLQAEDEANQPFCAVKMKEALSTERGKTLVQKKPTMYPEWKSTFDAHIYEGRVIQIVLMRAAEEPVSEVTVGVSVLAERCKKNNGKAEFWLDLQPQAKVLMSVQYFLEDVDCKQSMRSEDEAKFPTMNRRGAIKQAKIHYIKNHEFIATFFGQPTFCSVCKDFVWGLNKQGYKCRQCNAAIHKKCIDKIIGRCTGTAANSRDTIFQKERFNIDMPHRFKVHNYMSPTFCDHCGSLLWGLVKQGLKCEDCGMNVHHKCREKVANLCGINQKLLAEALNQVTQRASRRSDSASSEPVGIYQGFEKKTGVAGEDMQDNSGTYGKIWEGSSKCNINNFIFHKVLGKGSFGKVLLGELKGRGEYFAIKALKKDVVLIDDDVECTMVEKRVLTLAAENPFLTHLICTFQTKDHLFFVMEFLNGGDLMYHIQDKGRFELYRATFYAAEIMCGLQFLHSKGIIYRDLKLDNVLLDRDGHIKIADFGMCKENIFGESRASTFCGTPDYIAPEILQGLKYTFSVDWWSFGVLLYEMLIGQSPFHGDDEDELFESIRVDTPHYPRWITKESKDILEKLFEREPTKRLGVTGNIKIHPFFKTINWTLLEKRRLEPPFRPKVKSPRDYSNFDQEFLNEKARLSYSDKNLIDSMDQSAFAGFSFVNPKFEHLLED

inhibition at 1 µM [2]: 78%
Structure (SMILES): COc1ccc(O)c(C(=O)c2ccc(C(=O)N[C@@H]3CCCNC[C@H]3NC(=O)c3ccncc3)cc2)c1F [Compound 175]

inhibition at 1 µM [2, 3]: 80%
Structure (SMILES): COc1cc[nH]c1/C=C1\C(=O)Nc2ccc(F)c(C#CC3(O)CCOCC3)c21 [Compound 13]

inhibition at 1 µM [2, 3]: 97%
Structure (SMILES): COc1cc[nH]c1C=C1C(=O)Nc2ccc(F)c(C#CC(O)C(N)C(C)O)c21 (stereo not shown) [Compound 17]

inhibition at 1 µM [2]: 77%
Structure (SMILES): COc1ccc(O)c(C(=O)c2ccc(C(=O)O[C@@H]3CCCNC[C@H]3NC(=O)c3ccncc3)cc2)c1F [Compound 100]

inhibition at 1 µM [2]: 65%
inhibition at 10 µM (PKCδ): ~50%
Structure (SMILES): COc1cccc(C(=O)c2sc(Nc3ccc(N4CCN(C(C)C)CC4)cc3)nc2N)c1 [Compound 104]

inhibition at 1 µM [2, 3]: 58%
Structure (SMILES): OCCn1c(-c2ccncc2)c(-c2ccc(F)cc2)c2ncccc21 [Compound 123]

inhibition at 1 µM [2, 3]: 93%
Structure (SMILES): COc1cc[nH]c1/C=C1\C(=O)Nc2ccc([N+](=O)[O-])c(N3CC[C@@H](O)C3)c21 [Compound 102]

inhibition at 1 µM [2]: 86%
inhibition at 10 µM (PKCδ): ~70%
Structure (SMILES): Fc1ccc(-c2c(-c3ccncc3)[nH]c3cccnc23)cc1 [Compound 116]

inhibition at 1 µM [2]: 55%
Structure (SMILES): Cn1c(-c2ccncc2)c(-c2ccc(F)cc2)c2ncccc21 [Compound 121]

inhibition at 1 µM [2, 3]: 55%
Structure (SMILES): COc1cc[nH]c1/C=C1\C(=O)Nc2ccccc21 [Compound 5]

Further lines, the compound ahead of its results:

Structure (SMILES): O=C(Nc1ccc(CN2CCOCC2)cc1)c1ccc(-c2cccc(Cl)c2)o1 [CID2011756]
IC50 (PKD1): 3200 nM
inhibition of phorbol ester-induced endogenous PKD1 activation [1]: in a concentration-dependent manner

Structure (SMILES): Cc1cc(C)c2c(n1)sc1c(N)ncnc12 [Compound 172]
inhibition at 1 µM [2, 3]: 62%
inhibition at 10 µM (PKCδ; 10 µM): ~50%

Structure (SMILES): CNCC#Cc1c(F)ccc2c1/C(=C/c1[nH]ccc1OC)C(=O)N2 [Compound 11]
inhibition at 1 µM [2]: 94%

Structure (SMILES): O=C1NCCCc2c1oc1ccc(O)cc21 [CID755673]
IC50 (PKD1): 182 nM
inhibition of PKD1 in vitro (PKD1): low nanomolar range
suppression of PKD1 autophosphorylation at Ser916 [1]: low micromolar range

Structure (SMILES): O=C1Nc2ccc(F)c3c(OCCO)cc(-c4ccc[nH]4)c1c23 [Compound 101]
inhibition at 1 µM [2]: 86%
inhibition at 10 µM (PKCδ): ~50%

Structure (SMILES): Cc1cc(NCCCN)nc(-c2ccccc2O)n1 [CID5389142]
IC50 (PKD1): 1500 nM
inhibition of phorbol ester-induced endogenous PKD1 activation [1]: in a concentration-dependent manner

Structure (SMILES): CSc1c(C2=C(c3cn(C)c4ccccc34)C(=O)NC2=O)c2ccccc2n1C [Compound 30]
inhibition at 1 µM [2, 3]: 65%

Structure (SMILES): O=C1NCCSc2c1sc1ccc(O)cc21 [kb-NB142-70]
IC50 (PKD1): 28.3 nM
inhibition of PKD1 in vitro (PKD1): low nanomolar range
suppression of PKD1 autophosphorylation at Ser916 [1]: low micromolar range

Structure (SMILES): CCN1/C(=C/C(C)=O)Sc2ccc(OC)cc21 [CID1893668]
IC50 (PKD1): 1700 nM
inhibition of phorbol ester-induced endogenous PKD1 activation [1]: in a concentration-dependent manner

Structure (SMILES): O=C1Nc2ccc(F)cc2/C1=C/c1ccc[nH]1 [Compound 4]
inhibition at 1 µM [2, 3]: 57%

Structure (SMILES): Cn1cc(C2=C(c3cn(CCCO)c4ccccc34)C(=O)NC2=O)c2ccccc21 [Compound 34]
inhibition at 1 µM [2, 3]: 65%

Structure (SMILES): O=C1N=C(N[C@H](CO)Cc2ccccc2)S/C1=C\c1ccc2ncccc2c1 [Compound 190]
inhibition at 1 µM [2, 3]: 49%
inhibition at 10 µM (PKCδ; 10 µM): ~70%

Structure (SMILES): Cn1cc(C2=C(c3cccc4ccccc34)C(=O)NC2=O)c2ccccc21 [Compound 25]
inhibition at 1 µM [2, 3]: 54%

Structure (SMILES): NC1=NC(=O)/C(=C/c2ccc3ncccc3c2)S1 [Compound 205]
inhibition at 1 µM [2, 3]: 82%

Structure (SMILES): O=C1N=C(NCc2ccccc2)S/C1=C\c1ccc2ncccc2c1 [Compound 178]
inhibition at 1 µM [2, 3]: 55%
inhibition at 10 µM (PKCδ; 10 µM): ~50%

Structure (SMILES): O=C1N=C(N[C@H](CO)c2ccccc2)S/C1=C\c1ccc2ncccc2c1 [Compound 203]
inhibition at 1 µM [2, 3]: 85%

Structure (SMILES): CN[C@H](C#Cc1c(F)ccc2c1/C(=C/c1[nH]ccc1OC)C(=O)N2)CO [Compound 16]
inhibition at 1 µM [2, 3]: 95%

Source: paper PMC3445516 (PLoS ONE, 2012)
